Assay results taken from patent publication US20050287070A1, “Ligand-specific opening of a gated-porin channel in the outer membrane of living bacteria” (priority 1997, published 2005).

Molecular target: T1, Escherichia coli ferric enterobactin receptor, FepA (FepAE280C) (Escherichia coli, UniProt P05825, E302C)
T1 construct: expressed in transfected cells; host or cells: E. coli KDF541 (fepA, tonB+) carrying pFepAE280C; also KDF570 (fepA, tonB)
Format: cell-based
Protocol: Indicated at (A) are ESR analyses of MTSL-labeled bacteria expressing FepAE280C, KDF541(9) containing pITS449 of pFepAE280C was grown in LB medium and subcultured into T medium plus appropriate nutritional supplements at 1%. After 16 hours, bacteria were harvested and suspended in labeling buffer [50 mM Mops and 60 mM NaCl (PH7.5)]. Spin labels were added (to a final concentration of 20 μM MTSL or 10 μM MAL6) and incubated 2 hours at room temperature with shaking, and the cells were washed twice with reaction buffer containing 0.05% Tween-20 and once with reaction buffer alone. […] For ESR analysis, 10^10 cells were suspended in 100 μl of 0.01 M NaHPO4 (pH 6.9) containing 0.4% glucose. X-band spectra of MTSL-labeled KDF541/pFepAE280C (top), KDF541/pITS449 (fepA^+; center), or KDF541 (fepA; bottom) were recorded on a Bruker EMX spectrometer, operating at 9.8 GHz with a total scan range of 150 G and 100-kHz modulation frequency, at 4° C. in a quartz flat cell. Peaks a and b show the position of strongly and weakly immobilized spin labels, respectively. Indicated at (B) are [^125I]-labeled protein A Western blots with anti-MAL6 sera. MAL6 was coupled to bovine serum albumin (BSA) and ovalbumin (OVA). New Zealand White rabbits were immunized with BSA-MAL6 conjugates [100 μg/week for 1 month (29)], and polyclonal serum was collected in week 5 and assayed for antigen specificity by enzyme-linked immunosorbent assay (30) and Western blots against BSA, BSA-MAL6, OVA, and OVA-MAL6 (lanes 1 through 4, respectively). Lysates (5×10^7 cells) of KDF541, KDF541/pITS449, and KDF541/pFepAE280C, previously labeled with MAL6, as described above, were reacted with the anti-MAL6 polyclonal serum (lanes 5 through 7, respectively). Arrows indicate the positions of (top to bottom) FepAE280C-MAL6, BSA-MAL6, BSA, and OVA-MAL6.
KDF541/pFepAE280C was grown, spin-labeled, and prepared as described in FIG. 1. Signal-averaged X-band spectra (six field sweeps collected over an 8-minute period) of spin-labeled bacteria were recorded at 4° C. as indicated at (A) and again after warming the flat cell to 37° C. [indicated at (B) (31)]. A fresh aliquot of cells from the same labeling reaction was suspended in saturating ferric enterobactin (300 μM) at 4° C. as indicated at (C), the sample was warned to 37° C., and spectra were recorded after 5 minutes, as indicated at (D), and 15 minutes, as indicated at (E) (midpoints of the signal-average measurements). The bacteria were then cooled again to 4° C. for 30 minutes, and spectra were recorded, as indicated at (F). Each of the spectra was double-integrated, as indicated at (G), from 3405 to 3555 G to determine the total number of MTSL spins (O) and from 3443 to 3477 G to determine the spins derived from the strongly immobilized (a) and weakly immobilized (b) peaks (●).
KDF541/pFepAE280C was grown, spin-labeled, and prepared as described in FIG. 1. Singla-averaged X-band spectra (six field sweeps collected over an 8-minute period) of spin-labeled bacteria were recorded in the presence of saturating levels of colicin B (10 μM) at 4° C., as indicated at (A). The sample was warmed to 37° C. and analyzed after 5 minutes, as indicated at (B), 15 minutes, as indicated at (C), and 75 minutes, as indicated at (D) (midpoints of signal average measurement before recooling to 4° C., as indicated at (E). The same strain was grown in minimal media and starved for glucose for 2 hours to deplete its energy stores, spin-labeled, and exposed to colicin B (10 μM) at 37° C. for 30 minutes, as indicated at (F). The spectra were double-integrated, as indicated at (G), as described in FIG. 2.
KDF541/pFepAE280C was grown, spin-labeled, and prepared as described in FIG. 1.

[1] = ferric enterobactin in excess, 37° C.

T1 sequence (P05825 23-746 E302C): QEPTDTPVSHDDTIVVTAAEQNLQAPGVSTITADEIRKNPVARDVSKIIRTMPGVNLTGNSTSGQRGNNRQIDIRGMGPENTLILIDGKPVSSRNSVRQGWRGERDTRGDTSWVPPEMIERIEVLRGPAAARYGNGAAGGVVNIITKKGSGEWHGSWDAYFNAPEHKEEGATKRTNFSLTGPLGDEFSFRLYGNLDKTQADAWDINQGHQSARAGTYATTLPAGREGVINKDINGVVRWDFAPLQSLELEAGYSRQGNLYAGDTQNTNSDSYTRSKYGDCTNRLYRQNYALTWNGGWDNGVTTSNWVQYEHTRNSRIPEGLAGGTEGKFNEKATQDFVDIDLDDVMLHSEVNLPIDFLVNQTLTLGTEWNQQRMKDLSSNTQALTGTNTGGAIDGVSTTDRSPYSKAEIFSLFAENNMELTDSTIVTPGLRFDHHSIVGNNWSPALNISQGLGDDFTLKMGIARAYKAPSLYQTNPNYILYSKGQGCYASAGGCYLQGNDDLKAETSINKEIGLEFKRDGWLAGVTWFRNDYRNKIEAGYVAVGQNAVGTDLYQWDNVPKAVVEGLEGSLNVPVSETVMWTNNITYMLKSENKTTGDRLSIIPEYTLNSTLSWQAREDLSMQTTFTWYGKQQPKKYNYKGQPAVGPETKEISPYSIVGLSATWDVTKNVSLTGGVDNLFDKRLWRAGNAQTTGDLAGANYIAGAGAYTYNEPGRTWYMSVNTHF

O=C(N[C@H]1COC(=O)[C@@H](NC(=O)c2cccc([O-])c2[O-])COC(=O)[C@@H](NC(=O)c2cccc([O-])c2[O-])COC1=O)c1cccc([O-])c1[O-].[Fe+3] [ferric enterobactin]
period over which the burst of spin-label motion peaked and receded (ferric enterobactin 300 μM, 37° C., continuous monitoring at 3472 G): 5 min
effect on MTSL mobility (weakly immobilized peak at 3472 G) monitored over time (ferric enterobactin 300 μM, KDF541/pFepAE280C, glucose present, warmed from 4° C. to 37° C.): stimulated a burst of motion
time for first surge in motion to decay [1]: 140 s
time for first surge in motion to peak [1]: 140 s

colicin B
time over which immobilization of MTSL at residue 280 became more severe (cells with bound colicin warmed to 37° C.): 30 min
effect on MTSL mobility during continual incubation at 4° C. (colicin bound, 4° C., over the course of 1 hour): did not take place
effect on MTSL mobility in signal-averaged X-band spectra (saturating colicin B (10 μM), 37° C.): progressively eliminated weakly immobilized spins
